Experimental data as given in BigSolDB 2.1.

O=[N+]([O-])c1cccc(Cl)c1Cl
solubility (mole fraction)
Conditions | in ethanol | in methanol | in water
278.15 K | 0.013 | 0.0122 | 1.6e-06
280.65 K | 0.0149 | 0.0137 | 2.03e-06
283.15 K | 0.0172 | 0.0157 | 2.45e-06
285.65 K | 0.0203 | 0.0182 | 2.88e-06
288.15 K | 0.0231 | 0.0206 | 3.91e-06
290.65 K | 0.0257 | 0.0232 | 4.85e-06
293.15 K | 0.0286 | 0.0258 | 5.85e-06
295.65 K | 0.0322 | 0.0288 | 6.98e-06
298.15 K | 0.0366 | 0.0315 | 8.68e-06
300.65 K | 0.0418 | 0.0343 | 1.07e-05
303.15 K | 0.0465 | 0.0376 | 1.29e-05
